Measured values reported in patent publication US9464326B2, “Total and phosphorylated IL-1 receptor-associated kinase-1 and IL-1 receptor-associated kinase-4 as a biomarker for cancer progression and chemotherapy resistance” (University of Maryland, Baltimore, priority 2012, dated 2016).

Experiments:
Format in all cases: cell-based, human
A375 cells = assay: Milliplex cytokine/chemokine array
Protocol: FIG. 7. TLR and TLR signaling-related protein expression profiles on melanoma cell lines. (A) The expression levels of TLR1-TLR10 and various TLR-related proteins were examined by Western blot in samples from human melanoma cell lines. (B) The TLR1-TLR2 ligand Pam3CysK4 was added to A375 cells for 48 hrs. Cytokine and chemokine production by was determined using a Milliplex cytokine/chemokine array. (C) IRAK-1,-4 inhibitor or vehicle alone (DMSO) was added to melanoma cells for 48 hrs. The level of phosphorylated and non-phosphorylated p65 subunit of NF-KB was determined by Western blot. (D) Cytokine and chemokine levels in the supernatant A375 cell culture were examined using a Milliplex cytokine/chemokine array 48 hours after adding IRAK-1,-4 inhibitor or DMSO. ANOVA; **P<0.001, *P<0.05.
FIG. 19. Inhibiting IRAK-1/-4 abrogates the effects of TLR1-TLR2 agonist in melanoma cells. A375 cells were cultured in the presence or absence of TLR1-TLR2 ligand Pam3CysK4 (2.5 μg/ml) and in the presence of the IRAK-1/-4 inhibitor (10 μM) or vehicle control DMSO. Cytokine and chemokine production by was determined using a Milliplex cytokine/chemokine array 48 hrs. later.
A375 cells were cultured in the presence or absence of TLR1-TLR2 ligand Pam3CysK4 (2.5 μg/ml) and in the presence of the IRAK-1,-4 inhibitor (10 μM) or vehicle control DMSO. (FIG. 19). Therefore, activation of IRAK-1,-4 signaling on melanoma cells in vivo might contribute to cancer progression by inducing the expression of various chemokines and cytokines beneficial to cancer cell survival, division, and/or angiogenesis.

Loucy = assay: Proliferation (3H-thymidine) of Loucy
Text: CCRF-CEM, CEM/C1, CEM/C2, CEM-C7, Jurkat, Loucy, Molt-4, HSB-2, SUP-T1, Hut 78, HH, Hut 102, MO, and H9 T-leukemia and T-lymphoma cell lines were purchased from the American Type Culture Collection (Manassas, Va., USA). All of the cell lines were initially expanded and cryopreserved within one month of receipt. Cells were typically used for 6 months at which time a fresh vial of cryopreserved cells was used. Total T cells from healthy donors were isolated via negative selection followed by positive selection using a CD3+ selection kit (Invitrogen, Carlsbad, Calif.). T cells were isolated from patients with T-ALL bone marrow or peripheral blood samples containing more than 70% leukemia cells using a CD2+ isolation kit (STEMCELL Technologies, Vancouver, Canada). All tissues were collected under institutional IRB-approved protocols and all participants gave written informed assent/consent. For in vitro experiments, T-ALL cells were cultured in AIM-V medium supplemented with 20% human AB serum in the presence of recombinant human stem cell factor (50 ng/mL; Amgen, Thousand Oaks, Calif.), insulin (20 nM; Sigma-Aldrich, St Louis, Mo., USA) and IL-7 (50 ng/mL; R&D Systems, Minneapolis, Minn., USA). In other experiments, protein lysate was collected using the Full Moon Biosystems (Sunnyvale, Calif., USA) buffer prior to protein examination by western blot or protein array.
Cells were cultured in a 96-well plate (Corning Costar, Corning, N.Y., USA) with various concentrations of TLR ligands 1-9, starting at 10 μg/ml, in a final volume of 200 ul. TLR ligands were diluted 2-fold. Cell lines (25-40×10^3/well) were cultured for 54 hours, whereas fresh patient-derived T-ALL cells (200×10^3/well) were cultured for 30 hours prior to adding [^3H]-thymidine for 18 hours. After this time point, cells were harvested with a Packard Filter-Mate-96 cell harvester (Perkin Elmer, Waltham, Mass., USA) and counted on Packard Top Count-NXT (Perkin Elmer, Waltham, Mass., USA). Results were expressed as average counts per minute (cpm). In some experiments CCRF-CEM cells were pre-treated with TLR1-TLR2 ligand (Pam3CysK4; 2.5 ug/ml) for 48 hrs, washed, and then cultured in the presence of varying concentrations of FBS. Forty-eight hours later, proliferation (±SD) was determined by ^3H-thymidine incorporation. Alternatively, apoptosis was measured by flow cytometry after staining cells with Annexin-V (BD Pharmingen, San Diego, Calif., USA) and propidium iodide (Sigma). Cell number was counted under microscopy by staining cells with trypan blue. […]

G361 melanoma cells = assay: Western blot of IRAK phosphorylation in G361; conditions: Pam3CysK4 2.5 μg/ml or flagellin 100 ng/ml, 48 hours, FIG. 22B
Protocol: FIG. 22. Effects of TLR stimulation and cytokines on IRAK phosphorylation in melanoma cells. (A) A375 cells were cultured in the presence of anti-IL-18, anti-CXCL-1, (R&D Systems), anti-IL-1 (BioLegend), or mouse IgG (Sigma-Aldrich) all at 10 μg/ml. Forty-eight hours later the levels of the indicated proteins were determined by western blot. (B) A375 cells, which express p-IRAK-1 and p-IRAK-4, and G361 melanoma cells, which express very low levels of p-IRAK-1 (and express TLR5) were cultured in the presence of TLR1-TLR2 agonist (Pam3CysK4; 2.5 μg/ml) or TLR5 (flagellin; 100 ng/ml; InVivogen). Forty-eight hours later total protein was collected and the levels of the indicated proteins were examined by western blot.
Total cell extracts were prepared from melanoma cells. […] Melanoma tissue arrays were purchased from US Biomax, Inc (Rockville, Md.). For immunohistochemical staining samples were stained with mouse monoclonal anti-human phosphor-IRAK.-4 antibody (Abnova; dilution, 3.5 μg/ml) or normal mouse serum. Tissue histology sections (5-μm-thick) were deparaffinized, hydrated, heated in boiling 10 mmol/L sodium citrate (pH 6.0), for antigen retrieval, for 30 min and washed in Tris buffer. Peroxide blocking was done with 3% […] in methanol at room temperature for 15 min, followed by 10% fetal bovine serum in TBS-t for 30 min at room temperature. Primary antibody incubation was done overnight at 4° C. Secondary antibody incubation with horse anti-mouse (1:200; Vector Laboratories, Burlingame, Calif.) was done for 1 hr, followed by application of diaminobenzidine chromogen for 5 min. The slides were then counterstained with hematoxylin and topped with a coverslip. IHC specimens were analyzed using “quick score” system in which the intensity of the immunohistochemical reaction was scored by multiplying the intensity 1 (weak), 2 (moderate), and 3 (strong) and the proportion of cells staining positively 0 (<10%), 1 (10-25%), 2 (26-50%), 3 (51-75%) or 4 (>75%).

| Compound | production of VEGF, CXCLI, MCP 1, PDGF-A and FGF-2 (A375 cells; 48 hrs, absence of TLR agonists, p<0.05, FIG. 7D) | cytokine/chemokine effects of TLR1-TLR2 agonist (A375 cells; IRAK-1,-4 inhibitor 10 μM with Pam3CysK4 2.5 μg/ml, FIG. 19) | Proliferative effects of TLR ligands (Loucy; 3H-thymidine uptake, 72 h) | TLR ligand concentration in parentheses below the symbol (Loucy; no unit in table (μg/ml)) | p-IRAK-1 or p-IRAK-4 expression levels (G361 melanoma cells) | changes in levels of MCP-I, IL-6 and fractalkine (A375 cells; 48 hrs, FIG. 7B) | levels of GM-CSF and IP-10 (A375 cells; 48 hrs, p<0.001, FIG. 7B) | levels of cytokines and chemokines including VEGF, CXCLI and IL-8 (A375 cells; 48 hrs, p<0.05, FIG. 7B) |
| --- | --- | --- | --- | --- | --- | --- | --- | --- |
| O=C(Nc1nc2ccccc2n1CCN1CCOCC1)c1cccc([N+](=O)[O-])c1 [IRAK-1,-4 inhibitor] | significantly reduced | decreased the effects of TLR1-TLR2 agonist | – | – | – | – | – | – |
| tripalmitoyl-S-(bis(palmitoyloxy)propyl)-Cys-Ser-(Lys)3-Lys [Pam3Cysk4] | – | – | + (enhanced proliferation by 25% or greater) | (2.5) | neither TLR-1-TLR2 agonist (Pam3CysK4), nor TLR5 (Flagellin) stimulation increased or induced | not statistically significant | significantly increased | significantly augmented |
